Data taken from PubChem BioAssay AID2060605 (Molecular Pharmacology Branch, DTP, NCI, 2025).

System: 947758-054-R-J2-PDC spheroid growth, percent test/control
Experiment: Anticancer human tumor 947758-054-R-J2-PDC patient-derived colon adenocarcinoma cell line growth inhibition [CLK]
Details: spheroids with HUVEC and MSC; for IC50: curve of first compound; for viability, T/C: stronger effect = lower value
How it was run: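 Multi-cell-type spheroids combined patient-derived tumor cells with HUVEC endothelial cells and human mesenchymal stem cells. Paired agents were dosed in half-log steps down from about clinical Cmax, or from 10 microM where Cmax was unknown.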

[1] = second compound 0.0316 µM, first compound 0.0316 µM
[2] = second compound 0.0316 µM, first compound 0.1 µM
[3] = second compound 0.0316 µM, first compound 0.316 µM
[4] = second compound 0.0316 µM, first compound 1 µM
[5] = second compound 0.0316 µM, first compound 3.16 µM
[6] = second compound 0.0316 µM, first compound 10 µM
[7] = second compound 0.1 µM, first compound 0.0316 µM
[8] = second compound 0.1 µM, first compound 0.1 µM
[9] = second compound 0.1 µM, first compound 0.316 µM
[10] = second compound 0.1 µM, first compound 1 µM
[11] = second compound 0.1 µM, first compound 3.16 µM
[12] = second compound 0.1 µM, first compound 10 µM
[13] = second compound 0.316 µM, first compound 0.0316 µM
[14] = second compound 0.316 µM, first compound 0.1 µM
[15] = second compound 0.316 µM, first compound 0.316 µM
[16] = second compound 0.316 µM, first compound 1 µM
[17] = second compound 0.316 µM, first compound 3.16 µM
[18] = second compound 0.316 µM, first compound 10 µM
[19] = second compound 1 µM, first compound 0.0316 µM
[20] = second compound 1 µM, first compound 0.1 µM
[21] = second compound 1 µM, first compound 0.316 µM
[22] = second compound 1 µM, first compound 1 µM
[23] = second compound 1 µM, first compound 3.16 µM
[24] = second compound 1 µM, first compound 10 µM
[25] = second compound 3.16 µM, first compound 0.0316 µM
[26] = second compound 3.16 µM, first compound 0.1 µM
[27] = second compound 3.16 µM, first compound 0.316 µM
[28] = second compound 3.16 µM, first compound 1 µM
[29] = second compound 3.16 µM, first compound 3.16 µM
[30] = second compound 3.16 µM, first compound 10 µM
[31] = second compound 10 µM, first compound 0.0316 µM
[32] = second compound 10 µM, first compound 0.1 µM
[33] = second compound 10 µM, first compound 0.316 µM
[34] = second compound 10 µM, first compound 1 µM
[35] = second compound 10 µM, first compound 3.16 µM
[36] = second compound 10 µM, first compound 10 µM
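Note: spheroids exposed to compounds for one week before readout.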
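Throughout, for viability, T/C: 100% = DMSO vehicle control wells.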

Question: Which results are given for `CC(=O)O[C@H]1C(=O)[C@@]2(C)[C@H]([C@H](OC(=O)c3ccccc3)[C@]3(O)C[C@H](OC(=O)[C@H](O)[C@@H](NC(=O)c4ccccc4)c4ccccc4)C(C)=C1C3(C)C)[C@]1(OC(C)=O)CO[C@@H]1C[C@@H]2O` + CNC(=O)c1ccc(Nc2nc(OC3CCCC3)c3c(-c4ccc5nc(C)oc5c4)c[nH]c3n2)c(OC)c1?
Answer: IC50 (second compound 0.0316 µM): < 31.6 nM; IC50 (second compound 0.1 µM): > 10000 nM; IC50 (second compound 0.316 µM): < 31.6 nM; IC50 (second compound 1 µM): > 10000 nM; IC50 (second compound 3.16 µM): < 31.6 nM; IC50 (second compound 10 µM): < 31.6 nM; viability, T/C [1]: 27.7%; viability, T/C [2]: 34.4%; viability, T/C [3]: 31.7%; viability, T/C [4]: 35.2%; viability, T/C [5]: 40.6%; viability, T/C [6]: 47.7%; viability, T/C [7]: 61.2%; viability, T/C [8]: 59%; viability, T/C [9]: 65%; viability, T/C [10]: 79.8%; viability, T/C [11]: 79.1%; viability, T/C [12]: 90.5%; viability, T/C [13]: 47.7%; viability, T/C [14]: 65.1%; viability, T/C [15]: 74.4%; viability, T/C [16]: 85.6%; viability, T/C [17]: 88.3%; viability, T/C [18]: 87.4%; viability, T/C [19]: 41.1%; viability, T/C [20]: 83.5%; viability, T/C [21]: 59.1%; viability, T/C [22]: 61.9%; viability, T/C [23]: 82.8%; viability, T/C [24]: 57.6%; viability, T/C [25]: 36.9%; viability, T/C [26]: 43.8%; viability, T/C [27]: 70.2%; viability, T/C [28]: 70.8%; viability, T/C [29]: 67.9%; viability, T/C [30]: 56.8%; viability, T/C [31]: 35.2%; viability, T/C [32]: 42.1%; viability, T/C [33]: 56.7%; viability, T/C [34]: 53.9%; viability, T/C [35]: 56.8%; viability, T/C [36]: 61.3%

Question: Which IC50 (second compound 0.0316 µM) does the source give for `CCc1c2c(nc3ccc(O)cc13)-c1cc3c(c(=O)n1C2)COC(=O)[C@]3(O)CC` + CNC(=O)c1ccc(Nc2nc(OC3CCCC3)c3c(-c4ccc5nc(C)oc5c4)c[nH]c3n2)c(OC)c1 here?
Answer: < 3.16 nM

Question: And the IC50 (second compound 0.1 µM)?
Answer: 4.57 nM

Question: And the IC50 (second compound 0.316 µM)?
Answer: < 3.16 nM

Question: And the IC50 (second compound 1 µM)?
Answer: < 3.16 nM

Question: What about the IC50 (second compound 3.16 µM) of the same molecule?
Answer: < 3.16 nM

Question: And the IC50 (second compound 10 µM)?
Answer: < 3.16 nM

Question: And the viability, T/C (second compound 0.0316 µM, first compound 0.00316 µM)?
Answer: 45.2%

Question: What about the viability, T/C (second compound 0.0316 µM, first compound 0.01 µM) of the same molecule?
Answer: 30.2%

Question: What about the viability, T/C [1] of the same molecule?
Answer: 23.5%

Question: And the viability, T/C [2]?
Answer: 17.9%

Question: And the viability, T/C [3]?
Answer: 8.37%

Question: And the viability, T/C [4]?
Answer: 1.73%

Question: And the viability, T/C (second compound 0.1 µM, first compound 0.00316 µM)?
Answer: 59.9%

Question: And the viability, T/C (second compound 0.1 µM, first compound 0.01 µM)?
Answer: 28.5%

Question: And the viability, T/C [7]?
Answer: 18.2%

Question: And the viability, T/C [8]?
Answer: 16.5%

Question: What about the viability, T/C [9] of the same molecule?
Answer: 8.07%

Question: What about the viability, T/C [10] of the same molecule?
Answer: 3%

Question: And the viability, T/C (second compound 0.316 µM, first compound 0.00316 µM)?
Answer: 34.3%

Question: And the viability, T/C (second compound 0.316 µM, first compound 0.01 µM)?
Answer: 29.1%

Question: And the viability, T/C [13]?
Answer: 16.8%

Question: And the viability, T/C [14]?
Answer: 13.8%

Question: What about the viability, T/C [15] of the same molecule?
Answer: 6.27%

Question: And the viability, T/C [16]?
Answer: 1.02%

Question: What about the viability, T/C (second compound 1 µM, first compound 0.00316 µM) of the same molecule?
Answer: 34%

Question: And the viability, T/C (second compound 1 µM, first compound 0.01 µM)?
Answer: 20.6%

Question: What about the viability, T/C [19] of the same molecule?
Answer: 10.7%

Question: What about the viability, T/C [20] of the same molecule?
Answer: 8.46%

Question: What about the viability, T/C [21] of the same molecule?
Answer: 2.97%

Question: What about the viability, T/C [22] of the same molecule?
Answer: 0.31%

Question: What about the viability, T/C (second compound 3.16 µM, first compound 0.00316 µM) of the same molecule?
Answer: 31.6%

Question: What about the viability, T/C (second compound 3.16 µM, first compound 0.01 µM) of the same molecule?
Answer: 16.2%

Question: And the viability, T/C [25]?
Answer: 12.2%

Question: What about the viability, T/C [26] of the same molecule?
Answer: 6.75%

Question: And the viability, T/C [27]?
Answer: 4.2%

Question: And the viability, T/C [28]?
Answer: 0.54%

Question: And the viability, T/C (second compound 10 µM, first compound 0.00316 µM)?
Answer: 29.3%

Question: And the viability, T/C (second compound 10 µM, first compound 0.01 µM)?
Answer: 19.5%

Question: And the viability, T/C [31]?
Answer: 11.5%

Question: What about the viability, T/C [32] of the same molecule?
Answer: 5.96%

Question: What about the viability, T/C [33] of the same molecule?
Answer: 2.11%

Question: What about the viability, T/C [34] of the same molecule?
Answer: 0.68%

Question: How did the IC50 (second compound 0.0316 µM) turn out when `COc1cccc2c1C(=O)c1c(O)c3c(c(O)c1C2=O)CC(O)(C(=O)CO)CC3OC1CC(N)C(O)C(C)O1` (stereo unspecified) + CNC(=O)c1ccc(Nc2nc(OC3CCCC3)c3c(-c4ccc5nc(C)oc5c4)c[nH]c3n2)c(OC)c1 was run?
Answer: 68.2 nM

Question: What about the IC50 (second compound 0.1 µM) of the same molecule?
Answer: 42.3 nM

Question: What about the IC50 (second compound 0.316 µM) of the same molecule?
Answer: < 31.6 nM

Question: What about the IC50 (second compound 1 µM) of the same molecule?
Answer: < 31.6 nM

Question: What about the IC50 (second compound 3.16 µM) of the same molecule?
Answer: < 31.6 nM

Question: What about the IC50 (second compound 10 µM) of the same molecule?
Answer: < 31.6 nM

Question: What about the viability, T/C [1] of the same molecule?
Answer: 59%

Question: And the viability, T/C [2]?
Answer: 41.9%

Question: And the viability, T/C [3]?
Answer: 32.6%

Question: And the viability, T/C [4]?
Answer: 8.58%

Question: What about the viability, T/C [5] of the same molecule?
Answer: 0.41%

Question: And the viability, T/C [6]?
Answer: 6.15%

Question: What about the viability, T/C [7] of the same molecule?
Answer: 52.9%

Question: What about the viability, T/C [8] of the same molecule?
Answer: 42.3%

Question: What about the viability, T/C [9] of the same molecule?
Answer: 23.6%

Question: What about the viability, T/C [10] of the same molecule?
Answer: 4.38%

Question: And the viability, T/C [11]?
Answer: 0.29%

Question: And the viability, T/C [12]?
Answer: 4.57%

Question: And the viability, T/C [13]?
Answer: 45.4%

Question: And the viability, T/C [14]?
Answer: 32.1%

Question: And the viability, T/C [15]?
Answer: 12.9%

Question: And the viability, T/C [16]?
Answer: 2.1%

Question: And the viability, T/C [17]?
Answer: 0.25%

Question: What about the viability, T/C [18] of the same molecule?
Answer: 5.74%

Question: And the viability, T/C [19]?
Answer: 28.7%

Question: What about the viability, T/C [20] of the same molecule?
Answer: 22.5%

Question: What about the viability, T/C [21] of the same molecule?
Answer: 5.4%

Question: What about the viability, T/C [22] of the same molecule?
Answer: 0.36%

Question: And the viability, T/C [23]?
Answer: 0.24%

Question: What about the viability, T/C [24] of the same molecule?
Answer: 6.92%

Question: And the viability, T/C [25]?
Answer: 28.1%

Question: And the viability, T/C [26]?
Answer: 15.5%

Question: And the viability, T/C [27]?
Answer: 5.36%

Question: And the viability, T/C [28]?
Answer: 0.27%

Question: What about the viability, T/C [29] of the same molecule?
Answer: 0.27%

Question: And the viability, T/C [30]?
Answer: 9.95%

Question: And the viability, T/C [31]?
Answer: 23.3%

Question: And the viability, T/C [32]?
Answer: 20.3%

Question: What about the viability, T/C [33] of the same molecule?
Answer: 4.23%

Question: What about the viability, T/C [34] of the same molecule?
Answer: 0.21%

Question: What about the viability, T/C [35] of the same molecule?
Answer: 1%

Question: And the viability, T/C [36]?
Answer: 12.1%
